The text below walks through data of patent US12643867B2, “Compositions and uses thereof” (University of Virginia Patent Foundation, priority 2017, dated 2026).

Broadly, the inhibition is the share of the control response that was lost under treatment. Usually IC50 stands for the midpoint of a concentration-inhibition curve.

The subject of assay [1] is recombinant DGKs and native kinases in HEK293T proteomes. Briefly: Quantitative chemical proteomics, summary over kinases. It is filed as binding. As to conditions: for number of kinase targets that show SR≥2: recombinant DGKs and native kinases. The procedure:
Proteomes were diluted to 2 mg/ml in kinase buffer. The light and heavy proteomes (0.5 mg, 250 μL total reaction volume) were pre-treated with vehicle or compound, respectively (5 μL, DMSO (light) or 50× stock in DMSO (heavy)), mixed gently, and incubated at 25° C. for 30 min. […] After incubation, matched light and heavy proteomes were transferred and mixed in a 1:1 ratio in a two-dram vial containing 4:1:3 MeOH/CHCl3/H2O (2 mL MeOH, 500 AL CHCl3, 1.5 mL H2O) for extraction of proteins to remove excess probe, quickly vortexed, and centrifuged at 1,400×g for 3 min to pellet protein. Organic and aqueous layers were removed using a Pasteur pipette, and the protein pellet was transferred to a screw-top tube in 600 μL MeOH. A second extraction was performed by adding CHCl3 (150 μL) and H2O (600 μL) to each sample, vortexed, and centrifuged at 1,400×g for 3 min to pellet protein. Organic and aqueous layers were removed by pipetting. MeOH added to pellet (600 μL) and pellets were re-suspended by sonication (3×1 sec pulse, 20% amplitude) for a final extraction. Samples were then centrifuged at 17,000×g for 5 min to pellet protein and MeOH was removed by pipetting. The pellets were re-suspended in 10 M urea/25 mM ammonium bicarbonate ([…]), brought to a final volume of 1 mL with 25 mM ammonium bicarbonate, reduced with 10 mM DTT for 15 min at 65° C. allowed to cool, and then alkylated with 40 mM iodoacetamide for 30 min at 25° C. in the dark. To desalt the samples, each was transferred to a two-dram glass vial, and to the vial 4:1:2 MeOH/CHCl3/H2O (2 mL MeOH, 500 AL CHCl3, 1 mL H2O) was added. The vials were vortexed quickly, spun at 1.400×g for 3 min to pellet protein, and aqueous and organic layers were removed using a Pasteur pipette. The resulting protein pellet was transferred to a screw-top tube in 600 μL MeOH, and then CHCl3 (150 μL) and HO (600 μL) were added to extract protein a second time. The samples were vortexed quickly, centrifuged at 1,400×g to pellet protein, and the aqueous and organic layers were removed by pipetting. Resulting protein pellet was suspended in MeOH (600 μL) via sonication (3×1 sec pulse, 20% amplitude), centrifuged at 17,000×g for 5 min to pellet protein, and MeOH removed by pipetting. Protein pellets were then re-suspended in 25 mM ammonium bicarbonate (500 μL) and digested with 7.5 μg Trypsin/Lys-C(Promega, 15 μL, 0.5 μg/μL) for 3 h at 37° C. Avidin-agarose beads (Thermo Scientific Pierce, 100 AL aliquot per sample) were washed three times by adding 10 mL DPBS, centrifuged at 1,400×g for 1 min, and decanting. This wash step was repeated for a total of 3 times. Digested protein samples were mixed with washed avidin beads (100 μL) and brought to a volume of 5.5 mL with DPBS in a 15 mL conical and rotated for 1 h to enrich samples for the covalent desthiobiotin modification. The beads were washed with 25 mM ammonium bicarbonate (3× with 10 mL, centrifuge at 1,400×g for 3 min, decant) and then H2O (3× with 10 mL, centrifuge at 1,400×g for 3 min, decant). Washed beads were then transferred to a low-bind microfuge tube, centrifuged at 1,400×g for 3 min, allowed to rest for 1 min to settle beads, and then excess H2O was removed carefully using a gel-loading pipette tip. To elute peptides, 100 μL of elution buffer (50% acetonitrile, ACN; 0.1% formic acid) was added to each sample and incubated for 3 min. Beads were spun down at 1.400×g for 3 min, allowed to rest for 1 min to settle beads, and then 75 μL of peptide-containing supernatant was removed carefully using a gel-loading pipette tip and transferred to a new low bind centrifuge tube. This step was repeated two more times with 75 μL of elution buffer and all eluent were collected into the same centrifuge tube (˜225 μL total). Peptides were dried on a speed vacuum, resulting peptide samples acidified in 5% (v/v) formic acid, and stored at −80° C. until analysis.
The peptide samples were analyzed by liquid chromatography-mass spectrometry. […]

The target of assay [2] is T1, recombinant DGKα (Rattus norvegicus, UniProt P51556).
T1 construct: expressed in transfected cells; host or cells: HEK293T (SILAC HEK293T for LC-MS)
Briefly: Gel-based ATP acyl phosphate chemical proteomic assay. It is filed as binding. Particulars: for blockade of DGKα ATP probe labeling: compounds 100 μM (ATP 1 mM; RF001 at indicated concentrations), probe 10 μM. Here is the method: Cell pellets were resuspended in kinase buffer (Dulbecco's PBS (DPBS, Hyclone), 20 mM MgCl2, EDTA-free protease inhibitors (Pierce)) and then lysed by sonication (3×1 sec pulse, 20% amplitude). The cell lysates were then subjected to centrifugation (100,000×g, 45 min at 4° C.) to isolate the cytosolic fraction in the supernatant and the membrane fraction as a pellet. The membrane pellet was resuspended in kinase buffer by sonication. […] The only exception was experiments involving DGKE; recombinant DGKE protein was most prominently expressed in the membrane fraction and so this fraction was utilized to study DGKE enzyme (see FIG. 8). Protein concentrations were measured using the Bio-Rad DC protein assay. Samples were stored at −80° C. until use.
Proteome concentration was adjusted to 2 mg/mL in kinase buffer. Proteomes were first pre-treated with compound (0.6 μL, 50× stock in DMSO) mixed with gentle flicking, and incubated for 30 min at 25° C. in a microfuge tube (30 μL reaction volume). […] Reactions were then quenched with 10 AL of 4×SDS-PAGE loading buffer. Protein samples (15 μL) were loaded onto 4-20% TGX Stain-Free Protein Midi Gel and resolved by SDS-PAGE at 150V for 55 min. Proteins were then transferred to a nitrocellulose blot by Bio-Rad Trans-Blot Turbo Transfer System (25V. 10 min) to enhance sensitivity. The nitrocellulose blot was then incubated in blocking solution (30 mL, 3% BSA in TBS-T) for 1 h at 25° C. with gentle shaking. The blot was then transferred immediately to antibody solution (30 mL, 5% BSA in ddH2O with 0.1% Tween20 and 1:3000 Streptavidin DyLight 550) and incubated for 2 h at 25° C. with gentle shaking. The blot was then rinsed 5 times for 5 min in TBS-T. and then transferred into ddH2O. The blot was then imaged by in-blot fluorescence scanning on a ChemiDoc MP Imaging System. Fluorescence intensity signals were normalized to total lane protein using the Bio-rad Stain Free imaging (Posch et al., 2013).
The percentage of enzyme activity remaining was determined by comparing integrated band intensities or luminescence of inhibitor—with DMSO-treated samples for gel-based chemical proteomic or ADP-glo assays, respectively. For both chemical proteomic and ADP-glo methods, nonlinear regression analysis was used to determine the IC50 values from a dose-response curve generated using GraphPad Prism. Data are shown as mean±s.e.m. Determination of significance was performed by one-way ANOVA. All statistical analyses were performed using GraphPad Prism.

Read-outs that look alike come from different tables or passages of the source. Some results are limits rather than exact numbers.

T1 sequence (P51556 whole entry): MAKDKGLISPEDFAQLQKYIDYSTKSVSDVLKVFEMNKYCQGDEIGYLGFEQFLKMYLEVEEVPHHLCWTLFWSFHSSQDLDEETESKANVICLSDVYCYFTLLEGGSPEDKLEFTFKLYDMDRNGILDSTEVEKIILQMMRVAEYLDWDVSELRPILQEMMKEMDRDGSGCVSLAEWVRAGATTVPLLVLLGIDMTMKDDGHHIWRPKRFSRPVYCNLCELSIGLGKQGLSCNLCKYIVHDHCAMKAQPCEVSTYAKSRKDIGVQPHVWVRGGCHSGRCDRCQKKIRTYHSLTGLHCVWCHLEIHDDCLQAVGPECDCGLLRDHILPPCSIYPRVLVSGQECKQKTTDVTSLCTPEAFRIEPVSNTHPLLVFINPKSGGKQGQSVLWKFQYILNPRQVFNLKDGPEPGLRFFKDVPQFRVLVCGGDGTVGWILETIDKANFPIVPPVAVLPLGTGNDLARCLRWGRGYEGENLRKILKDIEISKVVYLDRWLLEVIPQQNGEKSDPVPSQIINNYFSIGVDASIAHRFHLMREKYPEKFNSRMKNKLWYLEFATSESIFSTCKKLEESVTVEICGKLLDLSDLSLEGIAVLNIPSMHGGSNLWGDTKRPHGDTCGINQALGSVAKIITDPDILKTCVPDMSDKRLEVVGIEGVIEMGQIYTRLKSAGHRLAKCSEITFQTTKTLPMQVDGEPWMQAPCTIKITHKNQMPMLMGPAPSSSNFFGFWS

As to `O=C(c1ccc(F)cc1)C1CCN(CCn2c(=O)[nH]c3ccccc3c2=O)CC1` [Ketanserin], the “competition at probe-binding sites” value in assay [1] (100 μM) is “negligible competition at all probe-binding sites”. Besides, in assay [2] (30 min), the “blockade of DGKα ATP probe labeling” value was “not ketanserin”.

Take `Fc1ccc(C(=C2CCNCC2)c2ccc(F)cc2)cc1` [RF001, 4-(Bis(4-fluorophenyl)methylene) piperidine]: in assay [1] (1 mM), the “average SILAC ratio at all detected probe-modified sites of other DGK subtypes” value was ~1. Moreover, in assay [1] (all detectable kinases), the “kinase targets with potent activity (SR≥5)” value is on record as “a single kinase target”. Further, in assay [1], the “number of kinase targets that show SR≥2” value amounted to 3. In addition, the inhibition at 1000 µM in assay [2] (1 mM, read-out: inhibition of DGKα activity in the probe-binding assay) was > 80%. For the same compound, in assay [2] (30 min), the “blockade of DGKα ATP probe labeling” value is listed as “blocked probe labeling in a concentration-dependent manner”.

With `Cc1nc2sccn2c(=O)c1CCN1CCC(=C(c2ccc(F)cc2)c2ccc(F)cc2)CC1` [Ritanserin], the “SILAC ratio at all binding sites detected, other DGK isoforms” value in assay [1] (100 μM) is < 2. Further, the “number of kinase targets that show SR≥2” value in assay [1] was 25. Also, the IC50 in assay [2] (IC50, blockade of ATP probe labeling of DGKα (gel-based), 10 μM ATP probe, 30 min) was 57 µM; in assay [2] (read-out: 95% confidence intervals for IC50 values, gel-based assay), 17 to 192 µM. Moreover, the “blockade of DGKα ATP probe labeling” value in assay [2] (30 min) is on record as “blocked probe labeling”.
